In patent publication US11472838B2, “Inhibitors of blood coagulation factor XIII” (Zedira GmbH, priority 2018, dated 2022):
Where two headings read alike, the source gives them in different places. *1 amine or outer side, *2 acyl side, *3 side chain or, on linkers, in order; H or OH if unused. Where a SMILES comes first, the peptide text is derived from it. [ ]: non-standard residue; d: D form. The star is where a group is joined. ξ: configuration not given here. Pro(3R,4S-CMe2) = CC1(C)[C@@H]2[C@@H](C(=O)O)NC[C@@H]21; Benzoyl(2-COOH-4,5-Cl2) = O=C(O)c1cc(Cl)c(Cl)cc1C(=O)*; Pro(3S,4R-(CH2)3) = O=C(O)[C@H]1NC[C@@H]2CCC[C@@H]21; Nle(5E-ene,6-CO2Et) = CCOC(=O)/C=C/CC[C@H](N)C(=O)O; Isonicotinoyl(3-COOH) = O=C(O)c1cnccc1C(=O)*; X1 = COC(=O)/C=C/CC[C@H](N[*:1])C(=O)[*:2]; X5 = CNC(=O)/C=C/CC[C@H](N[*:1])C(=O)[*:2]; X3 = O=C(c1cnc(O)c([N+](=O)[O-])c1)*; Pro(4-oxo) = O=C1CN[C@H](C(=O)O)C1; Thr(3ξ) = CC(O)[C@H](N)C(=O)O; Chg = N[C@H](C(=O)O)C1CCCCC1; Tle = CC(C)(C)[C@H](N)C(=O)O; X7 = O=C(O)c1nccnc1C(=O)*; NHIsopentyl = CC(C)CCN*; Cbz = O=C(OCc1ccccc1)*

Assays:
TG2 = TG2 (Homo sapiens (Human), UniProt P21980); experiment: Inhibitory activity against TG2 (isopeptidase assay), Tables 3 and 4; format: biochemical; settings: for Selectivity: TG2 versus FXIII
FXIII = FXIII (Homo sapiens (Human), UniProt P00488); experiment: Inhibitory activity against FXIII (isopeptidase assay), Tables 3 and 4; format: biochemical;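 note: FXIIIa activity read with a peptide substrate derived from the α2-antiplasmin N-terminal dodecapeptide, FXIII activated beforehand at room temperature, inhibitor-free wells with DMSO buffer as control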
[1] = Stability of compounds in plasma (HPLC); settings: for recovery in plasma determined by HPLC: 37° C., over a period of 2 hours; for recovery in plasma determined by HPLC / half-life: plasma
Description: Further, the stability of compounds in plasma was determined as prerequisite for drug-likeness. Briefly, after spiking the chemical entities, the plasma was incubated at 37° C. At certain time points (e.g. at 15 and 120 minutes), 3 vol. cold MeOH were added to extract the compounds. After centrifugation, the supernatant was analyzed by HPLC. The half life was calculated based on the respective calibration curve.

[2] = isopeptidase assay, Table 3, read-out: IC50 [nM] TG2
[3] = isopeptidase assay, Table 3, read-out: IC50 [nM] FXIII

TG2, sequence (P21980 whole entry): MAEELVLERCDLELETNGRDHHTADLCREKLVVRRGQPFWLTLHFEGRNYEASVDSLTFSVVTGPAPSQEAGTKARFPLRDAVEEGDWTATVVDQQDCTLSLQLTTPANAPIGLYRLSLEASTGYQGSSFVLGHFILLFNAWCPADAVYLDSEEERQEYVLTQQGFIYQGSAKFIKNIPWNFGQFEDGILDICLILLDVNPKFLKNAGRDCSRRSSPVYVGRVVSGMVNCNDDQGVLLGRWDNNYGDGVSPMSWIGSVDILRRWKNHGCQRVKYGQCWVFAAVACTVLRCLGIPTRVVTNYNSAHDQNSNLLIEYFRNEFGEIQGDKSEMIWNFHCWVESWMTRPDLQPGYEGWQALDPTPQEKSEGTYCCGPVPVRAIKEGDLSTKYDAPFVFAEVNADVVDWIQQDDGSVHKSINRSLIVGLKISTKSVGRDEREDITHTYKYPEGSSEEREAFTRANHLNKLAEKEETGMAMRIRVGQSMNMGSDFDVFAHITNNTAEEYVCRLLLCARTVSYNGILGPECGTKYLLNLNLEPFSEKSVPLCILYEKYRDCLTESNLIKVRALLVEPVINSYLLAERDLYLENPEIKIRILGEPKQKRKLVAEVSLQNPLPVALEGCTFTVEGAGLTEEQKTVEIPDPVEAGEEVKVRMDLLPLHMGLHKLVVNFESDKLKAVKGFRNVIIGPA
FXIII, sequence (P00488 39-732): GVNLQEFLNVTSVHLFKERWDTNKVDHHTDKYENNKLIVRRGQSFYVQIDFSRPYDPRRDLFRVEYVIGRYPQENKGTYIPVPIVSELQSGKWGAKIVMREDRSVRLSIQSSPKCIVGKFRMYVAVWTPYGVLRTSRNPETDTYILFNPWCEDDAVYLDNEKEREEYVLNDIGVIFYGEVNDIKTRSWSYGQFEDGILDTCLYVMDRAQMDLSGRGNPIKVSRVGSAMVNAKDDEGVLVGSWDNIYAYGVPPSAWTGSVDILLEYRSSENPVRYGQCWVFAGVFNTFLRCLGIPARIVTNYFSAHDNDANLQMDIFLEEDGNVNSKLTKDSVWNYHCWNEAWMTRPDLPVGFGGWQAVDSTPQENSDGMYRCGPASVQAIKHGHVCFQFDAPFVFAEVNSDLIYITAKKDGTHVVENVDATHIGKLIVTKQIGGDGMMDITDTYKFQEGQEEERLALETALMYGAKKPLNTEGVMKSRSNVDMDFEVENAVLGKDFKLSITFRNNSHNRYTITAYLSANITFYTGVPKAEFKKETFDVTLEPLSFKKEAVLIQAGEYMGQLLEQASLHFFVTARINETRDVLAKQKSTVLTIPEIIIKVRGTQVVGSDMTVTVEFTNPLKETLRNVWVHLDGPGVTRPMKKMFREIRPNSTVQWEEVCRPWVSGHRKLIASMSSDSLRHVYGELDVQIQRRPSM

| SMILES | IC50 (TG2; Table 4, read-out: TG2 IC50) [nM] | IC50 (FXIII; Table 4, read-out: FXIII IC50) [nM] | Selectivity (TG2; isopeptidase assay, Table 3) | IC50 (TG2; [2]) [nM] | IC50 (FXIII; [3]) [nM] | recovery at 2 h [1] [%] | half-life [1] [min] | Selectivity (TG2; Table 4) | recovery in plasma determined by HPLC [1] [%] |
| --- | --- | --- | --- | --- | --- | --- | --- | --- | --- |
| COC(=O)/C=C/CC[C@H](NC(=O)[C@H](CC(N)=O)NC(C)=O)C(=O)N[C@@H](CCC(=O)O)C(=O)N[C@@H](CCC(N)=O)C(=O)N[C@H](C(=O)N[C@@H](CO)C(=O)N1CCC[C@H]1C(=O)N[C@@H](CC(C)C)C(=O)O)C(C)C [Ref. 21, reference compound] (Ac-N[X1]EQVSPL-OH) | 421 | > 10 | – | – | – | – | – | – | – |
| CNC(=O)[C@@H](NC(=O)[C@@H](NC(=O)[C@@H]1CC(=O)CN1C(=O)[C@@H](NC(=O)[C@H](CC/C=C/C(=O)OC)NC(=O)c1ccncc1C(=O)O)C(C)(C)C)C1CCCCC1)C1CCCCC1 [36a/b] ({Isonicotinoyl(3-COOH)}-[X1][Tle][Pro(4-oxo)][Chg][Chg]-NHMe) | – | – | 4.1 | 168 | 41 | – | – | – | > 75 |
| COC(=O)/C=C/CC[C@H](NC(=O)c1cnc(O)c([N+](=O)[O-])c1)C(=O)N[C@H](C(=O)N1CC(=O)C[C@H]1C(=O)N[C@H](C(=O)N[C@H](C(N)=O)C1CCCCC1)C1CCCCC1)C(C)(C)C [Compound 6] (X3-[X1][Tle][Pro(4-oxo)][Chg][Chg]-NH2) | – | – | 0.7 | 12 | 17 | > 75 | – | – | – |
| CNC(=O)/C=C/CC[C@H](NC(=O)c1ccncc1C(=O)O)C(=O)N[C@H](C(=O)N1CC(=O)C[C@H]1C(=O)N[C@H](C(=O)N[C@H](C(N)=O)C1CCCCC1)C1CCCCC1)C(C)(C)C [17a/b] ({Isonicotinoyl(3-COOH)}-[X5][Tle][Pro(4-oxo)][Chg][Chg]-NH2) | – | – | 7.2 | 295 | 41 | – | – | – | > 75 |
| COC(=O)/C=C/CC[C@H](NC(=O)c1nccnc1C(=O)O)C(=O)N[C@H](C(=O)N1CC(=O)C[C@H]1C(=O)N[C@H](C(=O)N[C@H](C(N)=O)C1CCCCC1)C1CCCCC1)C(C)(C)C [Compound 3] (X7-[X1][Tle][Pro(4-oxo)][Chg][Chg]-NH2) | – | – | 0.8 | 16 | 20 | > 75 | – | – | – |
| COC(=O)/C=C/CC[C@H](NC(=O)[C@H](CC(N)=O)NC(C)=O)C(=O)N[C@@H](CCC(=O)O)C(=O)N[C@@H](CCC(N)=O)C(=O)N[C@H](C(=O)N[C@@H](CO)C(=O)N1CCC[C@H]1C(=O)N[C@@H](CC(C)C)C(=O)N[C@H](C(=O)N[C@@H](CC(C)C)C(=O)N[C@@H](CC(C)C)C(=O)N[C@@H](CCCCN)C(=O)O)C(C)O)C(C)C (stereo partly shown) [Ref. 17, reference compound] (Ac-N[X1]EQVSPL[Thr(3ξ)]LLK-OH) | 227 | 420 | – | – | – | – | < 15 | 0.54 | – |

Now from value to compound, other results behind:

| IC50 (TG2; Table 4, read-out: TG2 IC50) [nM] | IC50 (FXIII; Table 4, read-out: FXIII IC50) [nM] | Selectivity (TG2; isopeptidase assay, Table 3) | IC50 (TG2; [2]) [nM] | IC50 (FXIII; [3]) [nM] | recovery at 2 h [1] [%] | half-life [1] [min] | Selectivity (TG2; Table 4) | SMILES | recovery in plasma determined by HPLC [1] [%] |
| --- | --- | --- | --- | --- | --- | --- | --- | --- | --- |
| 26 | 5690 | – | – | – | – | – | – | CCOC(=O)/C=C/CC[C@H](NC(=O)OCc1ccccc1)C(=O)N[C@@H](CCC(N)=O)C(=O)N1CCC[C@H]1C(=O)N[C@@H](CC(C)C)C(=O)N[C@H](C(N)=O)C1CCCCC1 [Ref. 09, reference compound] (Cbz-[Nle(5E-ene,6-CO2Et)]QPL[Chg]-NH2) | – |
| – | – | 1.1 | 41 | 36 | > 75 | – | – | COC(=O)/C=C/CC[C@H](NC(=O)c1cnc(O)c([N+](=O)[O-])c1)C(=O)N[C@H](C(=O)N1C[C@@H]2CCC[C@@H]2[C@H]1C(=O)N[C@H](C(=O)N[C@H](C(N)=O)C1CCCCC1)C1CCCCC1)C(C)(C)C [Compound 28] (X3-[X1][Tle][Pro(3S,4R-(CH2)3)][Chg][Chg]-NH2) | – |
| 760 | 47 | – | – | – | > 75 | – | 16.17 | CCOC(=O)/C=C/CC[C@H](NC(=O)c1cc(Cl)c(Cl)cc1C(=O)O)C(=O)N[C@H](C(=O)N1CCC[C@H]1C(=O)N[C@@H](CC(C)C)C(=O)N[C@H](C(N)=O)C1CCCCC1)C(C)C [Compound 38] ({Benzoyl(2-COOH-4,5-Cl2)}-[Nle(5E-ene,6-CO2Et)]VPL[Chg]-NH2) | – |
| 341 | 995 | – | – | – | – | < 15 | 0.34 | COC(=O)/C=C/CC[C@H](NC(=O)[C@H](CC(N)=O)NC(C)=O)C(=O)N[C@@H](CCC(=O)O)C(=O)N[C@@H](CCC(N)=O)C(=O)N[C@H](C(=O)N[C@@H](CO)C(=O)N1CCC[C@H]1C(=O)N[C@@H](CC(C)C)C(=O)N[C@H](C(=O)N[C@@H](CC(C)C)C(=O)N[C@@H](CC(C)C)C(=O)O)C(C)O)C(C)C (stereo partly shown) [Ref. 18, reference compound] (Ac-N[X1]EQVSPL[Thr(3ξ)]LL-OH) | – |
| 176 | 8180 | – | – | – | – | – | 0.02 | CCOC(=O)/C=C/CC[C@H](NC(=O)OCc1ccccc1)C(=O)N[C@H](C(=O)N1CCC[C@H]1C(=O)N[C@H](C(=O)NCCC(C)C)C1CCCCC1)C(C)C [Ref. 10, reference compound] (Cbz-[Nle(5E-ene,6-CO2Et)]VP[Chg]-NHIsopentyl) | – |
| – | – | 1.3 | 32 | 24 | > 75 | – | – | COC(=O)/C=C/CC[C@H](NC(=O)c1cc(Cl)c(Cl)cc1C(=O)O)C(=O)N[C@H](C(=O)N1C[C@H]2[C@@H]([C@H]1C(=O)N[C@H](C(=O)N[C@H](C(N)=O)C1CCCCC1)C1CCCCC1)C2(C)C)C(C)(C)C [Compound 29] ({Benzoyl(2-COOH-4,5-Cl2)}-[X1][Tle][Pro(3R,4S-CMe2)][Chg][Chg]-NH2) | – |
